In PubChem BioAssay AID270 (DTP/NCI, 2004):
Where “and” joins values, the source holds several entries; their conditions need not be identical. Identical values can stand only once. Results filed as inconclusive are left out.

Tested on: BDF1 mice, s.c. Lewis lung carcinoma, T/C %
Experiment: NCI In Vivo Anticancer Drug Screen. Data for tumor model Lewis Lung Carcinoma (subcutaneous) in B6D2F1 (BDF1) mice
Procedure, shortened: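 Tumor-bearing mice were treated with test compound, and either survival or tumor size was recorded. Values are the treated-group measurement divided by that of the vehicle-treated control group.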

[1] = endpoint: median survival time, dose: 12.5 mg/kg/injection, schedule: Q01DX009 (ip), vehicle: Klucel (hydroxypropylcellulose) (HPC), higher = longer survival
[2] = endpoint: median survival time, dose: 25.0 mg/kg/injection, schedule: Q01DX009 (ip), vehicle: Klucel (hydroxypropylcellulose) (HPC), higher = longer survival
[3] = endpoint: mean tumor weight, dose: 6.0 mg/kg/injection, schedule: Q01DX011 (ip), vehicle: saline, higher = larger tumour

`COc1ccc(NC(=O)N(CCCl)N=O)cc1OC` was tested, and the T/C (endpoint: median survival time, dose: 1.56 mg/kg/injection, schedule: Q01DX009 (ip), vehicle: Klucel (hydroxypropylcellulose) (HPC), higher = longer survival) was 97 % of control, the T/C (endpoint: median survival time, dose: 3.12 mg/kg/injection, schedule: Q01DX009 (ip), vehicle: Klucel (hydroxypropylcellulose) (HPC), higher = longer survival) was 100 % of control and the T/C (endpoint: median survival time, dose: 6.25 mg/kg/injection, schedule: Q01DX009 (ip), vehicle: Klucel (hydroxypropylcellulose) (HPC), higher = longer survival) was 106 % of control. For the same molecule, the T/C [1] was 101 % of control and the T/C [2] was 107 % of control.
`CCN(CC)CCCC(C)Nc1c2ccc(Cl)cc2nc2cc(Cl)ccc12` (configuration not stated) was tested, and the T/C [1] was 105 % of control, the T/C [2] was 97 % of control and the T/C (endpoint: median survival time, dose: 50.0 mg/kg/injection, schedule: Q01DX009 (ip), vehicle: Klucel (hydroxypropylcellulose) (HPC), higher = longer survival) was 105 % of control.
For `CN(C)c1ccc(C(N)=O)cn1`, the T/C (endpoint: mean tumor weight, dose: 1.5 mg/kg/injection, schedule: Q01DX011 (ip), vehicle: saline, higher = larger tumour) was 100 % of control, the T/C (endpoint: mean tumor weight, dose: 3.0 mg/kg/injection, schedule: Q01DX011 (ip), vehicle: saline, higher = larger tumour) was 63 % of control and the T/C [3] was 36 % of control.
With `O=NN(CCCl)C(=O)NC1C2CC3CC(C2)CC1C3` (configuration not stated) the T/C (endpoint: median survival time, dose: 10.0 mg/kg/injection, schedule: Q01DX001 (ip), vehicle: Klucel (hydroxypropylcellulose) (HPC), higher = longer survival) was 99 % of control and 111 % of control, the T/C (endpoint: median survival time, dose: 20.0 mg/kg/injection, schedule: Q01DX001 (ip), vehicle: Klucel (hydroxypropylcellulose) (HPC), higher = longer survival) was 100 % of control and the T/C (endpoint: median survival time, dose: 25.0 mg/kg/injection, schedule: Q01DX001 (ip), vehicle: saline with Tween-80, higher = longer survival) was 102 % of control. The T/C (endpoint: median survival time, dose: 38.0 mg/kg/injection, schedule: Q01DX001 (ip), vehicle: saline with Tween-80, higher = longer survival) was 101 % of control, the T/C (endpoint: median survival time, dose: 40.0 mg/kg/injection, schedule: Q01DX001 (ip), vehicle: Klucel (hydroxypropylcellulose) (HPC), higher = longer survival) was 106 % of control and the T/C (endpoint: median survival time, dose: 57.0 mg/kg/injection, schedule: Q01DX001 (ip), vehicle: saline with Tween-80, higher = longer survival) was 96 % of control. For the same molecule, the T/C (endpoint: median survival time, dose: 80.0 mg/kg/injection, schedule: Q01DX001 (ip), vehicle: Klucel (hydroxypropylcellulose) (HPC), higher = longer survival) was 110 % of control, the T/C (endpoint: median survival time, dose: 85.0 mg/kg/injection, schedule: Q01DX001 (ip), vehicle: saline with Tween-80, higher = longer survival) was 99 % of control and 121 % of control and the T/C (endpoint: median survival time, dose: 160.0 mg/kg/injection, schedule: Q01DX001 (ip), vehicle: Klucel (hydroxypropylcellulose) (HPC), higher = longer survival) was 113 % of control. For the same molecule, the T/C (endpoint: median tumor weight (est.), dose: 25.0 mg/kg/injection, schedule: Q01DX001 (ip), vehicle: DMSO, higher = larger tumour) was 39 % of control, the T/C (endpoint: median tumor weight (est.), dose: 25.0 mg/kg/injection, schedule: Q01DX001 (sc), vehicle: olive oil, sesame oil, peanut oil, higher = larger tumour) was 80 % of control and the T/C (endpoint: median tumor weight (est.), dose: 38.0 mg/kg/injection, schedule: Q01DX001 (sc), vehicle: olive oil, sesame oil, peanut oil, higher = larger tumour) was 60 % of control. For the same molecule, the T/C (endpoint: median tumor weight (est.), dose: 57.0 mg/kg/injection, schedule: Q01DX001 (ip), vehicle: DMSO, higher = larger tumour) was 3 % of control, the T/C (endpoint: median tumor weight (est.), dose: 57.0 mg/kg/injection, schedule: Q01DX001 (sc), vehicle: olive oil, sesame oil, peanut oil, higher = larger tumour) was 52 % of control and the T/C (endpoint: median tumor weight (est.), dose: 80.0 mg/kg/injection, schedule: Q01DX001 (ip), vehicle: saline with Tween-80, higher = larger tumour) was 53 % of control. The T/C (endpoint: median tumor weight (est.), dose: 85.0 mg/kg/injection, schedule: Q01DX001 (sc), vehicle: olive oil, sesame oil, peanut oil, higher = larger tumour) was 36 % of control, the T/C (endpoint: median tumor weight (est.), dose: 161.0 mg/kg/injection, schedule: Q01DX001 (ip), vehicle: saline with Tween-80, higher = larger tumour) was 60 % of control and the T/C (endpoint: median tumor weight (est.), dose: 215.0 mg/kg/injection, schedule: Q01DX001 (ip), vehicle: saline with Tween-80, higher = larger tumour) was 7 % of control.
`Clc1cccc(Br)c1` was tested, and the T/C (endpoint: mean tumor weight, dose: 25.0 mg/kg/injection, schedule: Q01DX011 (ip), vehicle: other, higher = larger tumour) was 95 % of control, the T/C (endpoint: mean tumor weight, dose: 50.0 mg/kg/injection, schedule: Q01DX011 (ip), vehicle: other, higher = larger tumour) was 81 % of control and the T/C (endpoint: mean tumor weight, dose: 100.0 mg/kg/injection, schedule: Q01DX011 (ip), vehicle: other, higher = larger tumour) was 58 % of control. The T/C (endpoint: mean tumor weight, dose: 200.0 mg/kg/injection, schedule: Q01DX011 (ip), vehicle: other, higher = larger tumour) was 30 % of control.
`CC(=O)OC1C=CC(=O)OC1C1OC1C` (configuration not stated) was tested, and the T/C (endpoint: mean tumor weight, dose: 4.0 mg/kg/injection, schedule: Q01DX011 (ip), vehicle: saline, higher = larger tumour) was 105 % of control, the T/C [3] was 81 % of control and the T/C (endpoint: mean tumor weight, dose: 9.0 mg/kg/injection, schedule: Q01DX011 (ip), vehicle: saline, higher = larger tumour) was 91 % of control. The T/C (endpoint: mean tumor weight, dose: 19.0 mg/kg/injection, schedule: Q01DX011 (ip), vehicle: saline, higher = larger tumour) was 62 % of control.
